Source: paper PMC6957531, “A butanolic fraction from the standardized stem extract of Cassia occidentalis L delivered by a self-emulsifying drug delivery system protects rats from glucocorticoid-induced osteopenia and muscle atrophy” (Scientific Reports, 2020)

Assays:
[1] = Plasma levels of osteogenic compounds after single oral dosing of CSE-Bu or CSE-BuF (LC-MS/MS); conditions: rat; for AUC / Cmax / increase of relative bioavailability by CSE-BuF compared to CSE-Bu / %Fr (relative bioavailability): male, Sprague Dawley; for AUC / Cmax / %Fr (relative bioavailability): 250 mg/kg
Protocol: All analytes were analyzed using API-QTRAP 4000 mass spectrometer (ABSciex, Canada) equipped with electrospray ionization (ESI) source in negative ion ([M-H]^−) mode [apigenin, isovitexin, emodin, luteolin, 3′,4′,7-trihydroxyflavone (THF), and fenofibric acid (FFA)] and quantified using Analyst 1.6 software (Applied Biosystems, MDS Sciex Toronto, Canada). Quantification was performed by multi-reaction monitoring (MRM), by monitoring the parent ion to product ion transition of 269.3/116.9 for apigenin, 431.2/311 for isovitexin, 269.1/224.9 for emodin, 284.9/133 for luteolin, 268.9/132.8 for THF, 316.9/230.9 for FFA (IS for apigenin, isovitexin, emodin, luteolin, and THF). Compound parameters, viz. declustering potential (V), entrance potential (V), collision energy, collision exit potential were −76, −10, −49, and −5 for apigenin; −100, −10, −20 and −15 for isovitexin; −100, −10, −40, and −10 for emodin; −100, −10, −50, and −20 for luteolin; −100, −10, −40, and −10 for THF; −55, −10, −12 and −10 for FFA; respectively. Source parameters, viz. curtain gas (psi), collision gas, ionspray voltage (V), ion source temperature (°C), nebulizer gas (GS1, psi) and turbo ion gas (GS2, psi) for apigenin, isovitexin, emodin, luteolin, THF, and FFA were 30, high, −4500, 500, 50, 50 respectively.
Shimadzu UFLC system (Kyoto, Japan) equipped with a binary pump (LC-20AD), a degasser (DGU-20A3), an autosampler (SIL-HTc) and a column oven (CTO-20AC) was used to inject the samples. The chromatographic separation of apigenin, isovitexin, emodin, luteolin, THF and FFA were performed on Phenomenex Luna (C18 (2), 100A, 150 × 4.6 mm, 3 μ) column with a mobile phase consisting of methanol: 10 mM ammonium acetate, 95:05 (v/v) at 0.6 mL/min flow rate. The temperature of the column oven was set at 40 °C during analysis. 10 µL samples were injected for quantification.
For extraction of apigenin, isovitexin, emodin, luteolin, THF, liquid-liquid extraction (LLE) method was applied for processing rat plasma. Plasma (100 µL) was incubated with 50 µL β-glucuronidase enzyme (2 mg/mL in 100 mM ammonium acetate buffer pH 5), and 50 µL ammonium acetate buffer (100 mM, pH 5) for 2 h at 37°C on water shaking bath. 200 µL ACN containing IS (FFA, 100 ng/mL) was added to plasma, vortex for 15 sec, and then 100 µL 0.1% formic acid (in 10 mM ammonium formate) was added. After vortexing for 5 min on vortexer (IKA^(R) VIBRAX VXR basic) at 1200 rpm, 2 mL ethyl acetate was added. The mixture was again vortexed for 10 min and then centrifuged at 10000 rpm for 5 min. The supernatant (1.5 mL) was transferred into Ria vial and completely dried in a TurboVap. The dried residue was reconstituted with 100 µL of mobile phase and analyzed by LC-MS/MS[44].
For determination of osteogenic compounds in the plasma of rats given CSE-Bu and CSE-BuF, we recruited male Sprague Dawley (SD) rats (220 ± 20 g) and were fasted overnight with free access to water. Rats were divided into 2 groups consisting of 6/group. One group received CSE-Bu (250 mg/kg/oral) and the other received CSE-BuF (250 mg/kg/oral). Blood (300 µL) was collected into 0.5 ml centrifuged tube containing EDTA at 0.25, 0.5, 1, 2, 4, 8, 12, 24, and 48 h and plasma was separated followed by centrifugation at 10000 rpm for 10 min and stored at -80 °C for further analysis. For pharmacokinetic analysis, plasma concentration versus time was plotted and analyzed by non-compartmental analysis method using WinNonlin (Pharsight, Mountain View, CA) software.

[2] = design: method as in PMID 30703497; conditions: cited from earlier work
bone = conditions: cited from earlier work
[3] = type: in vivo
Protocol: (§1) All treatments lasted for 4 weeks.
Body composition of live rats was analyzed using an Echo-MRI Body Composition Analyzer E26-226-RM (EchoMRI LLC, USA) as per our previously described method[14],[47]–[50].

femur diaphysis = test: GIO model: bone dynamic histomorphometry (double calcein labeling); type: in vivo, male SD rats; conditions: versus control (Veh)
Protocol: as §1
For dynamic histomorphometric measurements, double calcein labeling was performed with an interval of 10 days between two calcein injections. We measured the periosteal perimeter, single-labeled surface (sLS), double labeled surface (dLS), and interlabeled thickness (IrLTh).

[4] = test system: L5 vertebra and femur diaphysis; test: GIO model: bone strength (L5 compression, femur 3-point bending); type: in vivo, male SD rats
Protocol: as §1
Bone mechanical strength was measured by three-point bending test for femur diaphysis and compression test for L5 vertebrae using a bone strength tester TK 252 C (Muromachi Kikai Co. Ltd, Tokyo, Japan) according to a previously published protocol[14],[52].

[5] = test system: serum PINP, CTX-I, sclerostin (SOST); test: GIO model: serum biochemical markers by ELISA; type: in vivo, male SD rats
Protocol: as §1
(§2) The serum samples were collected from blood by centrifugation at 3000 rpm. Serum cross-linked C-telopeptide of Type I collagen (CTX-I), procollagen type I N-terminal propeptide (PINP), sclerostin (SOST), interleukin 1 beta (IL-1β) levels were determined by ELISA (MyBioSource, USA) following the manufacturer’s protocols.

miR-29a, miR-17, miR-20a = test: GIO model: miRNA expression in bones (TaqMan assay); design: species or system male SD rats; conditions: rat, in vivo
Excerpt: as §1
TaqMan assay (Thermo Fisher Scientific, USA) was used to determine miRNA expression in bones. Specific assay was designed based on published sequence using Thermo Fisher miRNA assay design tool. Assay ID of different miRNA was; hsa-miR-29a (OO2112), hsa-miR-17 (OO2308), hsa-miR-20a (OOO580) and U6 snRNA (OO1973)[54].

[6] = test system: GILZ mRNA in thymus and bone; serum IL-1β; test: Evaluation of the anti-inflammatory response (GILZ mRNA, serum IL-1β); design: species or system male SD rats; conditions: rat, in vivo
Protocol: as §2
Primer sequences are listed below:
Serum IL-1β level were measured to evaluate the effect of CSE-BuF on glucocorticoid-mediated anti-inflammatory response.

gastrocnemius muscle = test: GIO model: muscle histomorphometry; type: in vivo, male SD rats; conditions: versus control
Protocol: as §1
Gastrocnemius muscles were carefully dissected and stored in chilled PBS for 48 h. Tissues were then transferred to 30% sucrose solution (in PBS) at 4 °C until they sank to the bottom. Tissues were embedded in OCT tissue freezing medium (Leica Bio systems, India) and cryo-sections (7 µm) were made using a Cryotome™ FSE Cryostat (Thermo Scientific). Tissue sections were collected on poly-L-lysine coated slides. For H&E staining, sections were rehydrated in PBS for 10 min and fixed in 10% formalin for 3 min. Then H&E staining was performed and mounted with DPX (Sigma). Quantitative analysis for determining cross-sectional area and Feret’s diameter of the muscle fibers were performed using Image J software[50],[56].

[7] = test system: atrogin 1 and MuRF1 in gastrocnemius muscle; test: GIO model: immunoblotting of muscle atrogenes; design: species or system male SD rats; conditions: rat, in vivo
Protocol: as §1
Gastrocnemius muscle samples were collected from each group and protein lysates were prepared to determine the levels of muscle atrogenes [atrogin 1], and muscle ring finger protein (MuRF1). Relative expression of these proteins was detected by immunoblot analysis using specific antibodies againts atrogin 1 (Abcam; 1:1000 dilution), MuRF1 (Santa Cruz Biotechnology; 1:1000 dilution), and GAPDH (Merck Millipore; 1:1000 dilution). Densitometric analyses of immunoblots were performed using ImageJ software.

[8] = test system: OCN, TRAP, DMP-1, MEPE, RANKL mRNA in bones; test: GIO model: osteoblast-, osteoclast- and osteocyte-specific genes in bones by qPCR; conditions: rat, in vivo
[9] = in vivo, AUC, CSE-BuF at 250 mg/kg orally, rat plasma, Mean ± SD
[10] = in vivo, CSE-BuF at 250 mg/kg orally, rat plasma, Mean ± SD
[11] = 4 weeks, MP 5 mg/kg s.c. daily, CSE-BuF 50 mg/kg oral daily, mean ± SEM, n = 10/group

Row | plasma level after single oral dosing of CSE-Bu (in words) [1] | plasma level after single oral dosing of CSE-BuF (in words) [1] | AUC ([1]; po, AUC) [ng·h/mL] | Cmax ([1]; po) [ng/mL] | SMILES | AUC [1, 9] [ng·h/mL] | Cmax [1, 10] [ng/mL] | in vivo bone conserving effect (bone) | increase of relative bioavailability by CSE-BuF compared to CSE-Bu ([1]; po) [%] | %Fr (relative bioavailability) ([1]; po) [%] | also measured
1 | not detectable | detectable and measured in plasma | 2.2 ± 1.15 | 3.98 ± 3.03 | O=c1cc(-c2ccc(O)cc2)oc2cc(O)cc(O)c12 [Apigenin] |  |  | in vivo bone conserving effect has been reported |  |  | 
2 | could be measured in plasma | increases | 259 ± 144 |  | O=c1cc(-c2ccc(O)c(O)c2)oc2cc(O)cc(O)c12 [Luteolin] |  |  | in vivo bone conserving effect has been reported | 36 | 136.94 ± 17.14 | AUC ([1]; po): 456.33 ± 131.28 ng·h/mL

The next lines start with the molecule.

Row | SMILES | plasma level after single oral dosing of CSE-Bu (in words) [1] | plasma level after single oral dosing of CSE-BuF (in words) [1] | AUC ([1]; po, AUC) [ng·h/mL] | Cmax ([1]; po) [ng/mL] | AUC [1, 9] [ng·h/mL] | Cmax [1, 10] [ng/mL] | in vivo bone conserving effect (bone) | increase of relative bioavailability by CSE-BuF compared to CSE-Bu ([1]; po) [%] | %Fr (relative bioavailability) ([1]; po) [%] | also measured
3 | O=c1cc(-c2ccc(O)cc2)oc2cc(O)c([C@@H]3O[C@H](CO)[C@@H](O)[C@H](O)[C@H]3O)c(O)c12 [Apigenin 6-C-glucoside Or Isovitexin, Apigenin 6-C-glucoside] | not detectable | detectable and measured in plasma |  |  | 17.9 ± 10.4 | 7.74 ± 4.29 |  |  |  | osteogenic effect in vitro among compounds of CSE-Bu [2]: best osteogenic effect in vitro; in vivo osteogenic effect (bone; mice, ref unpublished data, S. Pal and N. Chattopadhyay): has in vivo osteogenic effect in mice
4 | C[C@H]1C[C@@H]2[C@H]([C@@H](O)C[C@@]3(C)[C@H]2CC[C@]3(O)C(=O)CO)[C@@]2(C)C=CC(=O)C=C12 [MP, Methylprednisolone] |  |  |  |  |  |  |  |  |  | Body weight [3, 11]: 239.86 ± 5.71 gm; Fat Mass [3, 11]: 6.12 ± 0.58 %; Lean Mass [3, 11]: 71.96 ± 2.43 %; decrease of fat mass compared to control ([3]; rat, in vivo): 40%; decrease of lean mass compared to control ([3]; rat, in vivo): 11%; mineralizing surface (pMS/BS), mineral apposition rate (pMAR) and bone formation rate (pBFR/BS) (femur diaphysis): significant decreases; strength parameters (peak load, energy to failure and stiffness) [4]: decreased all strength parameters; serum sclerostin ([5]; rat, in vivo): significantly increased; serum CTX-I (bone resorption marker) ([5]; versus control (Veh)): increased; serum PINP (bone formation marker) ([5]; versus control (Veh)): suppressed; levels of miRNA 17, 20a and 29a in bones (miR-29a, miR-17, miR-20a): significant decreases; GILZ mRNA in thymus and bone [6]: robust increase; serum IL-1β [6]: suppressed; cross-sectional area and Feret's diameter of gastrocnemius muscle (gastrocnemius muscle): significantly reduced; atrogin and MuRF-1 protein levels in muscle [7]: increased; RANKL mRNA in bones [8]: robust increase; TRAP mRNA in bones [8]: robust increase; mRNA levels of osteocyte markers DMP-1 and MEPE in bones [8]: significant decrease; osteocalcin (OCN) mRNA level in bones [8]: significantly suppressed
5 | O=c1cc(-c2ccc(O)c(O)c2)oc2cc(O)ccc12 [3′,4′,7-trihydroxyflavone (THF), 3′,4′,7-trihydroxyflavone] | not detectable | detectable and measured in plasma | 764 ± 382 | 201 ± 107 |  |  |  |  |  | 
6 | Cc1cc(O)c2c(c1)C(=O)c1cc(O)cc(O)c1C2=O [Emodin] | could be measured in plasma | increases |  |  | 239 ± 31.1 | 29.2 ± 13 | in vivo bone conserving effect has been reported | 279 | 379.68 ± 87.63 | AUC ([1]; in vivo, AUC, CSE-Bu at 250 mg/kg orally, rat plasma, Mean ± SD): 69.3 ± 33.2 ng·h/mL; Cmax ([1]; in vivo, CSE-Bu at 250 mg/kg orally, rat plasma, Mean ± SD): 12.3 ± 3.8 ng/mL
